{"source": "paper PMC11864979", "about": "“First-in-class ultralong-target-residence-time p38α inhibitors as a mitosis-targeted therapy for colorectal cancer” (Nature Cancer, 2025)", "assay_in_all_cases": "selectivity profiling in a panel of 340 wild-type kinases (Reaction Biology Europe)", "type_in_all_cases": "binding", "key": {"340 wild-type kinases [1]": {"molecular_target": "T1, 340 wild-type kinases (Homo sapiens, UniProt P06213)", "T1 construct": "purchased Reaction Biology Europe", "T1 sequence (P06213 28-1382)": "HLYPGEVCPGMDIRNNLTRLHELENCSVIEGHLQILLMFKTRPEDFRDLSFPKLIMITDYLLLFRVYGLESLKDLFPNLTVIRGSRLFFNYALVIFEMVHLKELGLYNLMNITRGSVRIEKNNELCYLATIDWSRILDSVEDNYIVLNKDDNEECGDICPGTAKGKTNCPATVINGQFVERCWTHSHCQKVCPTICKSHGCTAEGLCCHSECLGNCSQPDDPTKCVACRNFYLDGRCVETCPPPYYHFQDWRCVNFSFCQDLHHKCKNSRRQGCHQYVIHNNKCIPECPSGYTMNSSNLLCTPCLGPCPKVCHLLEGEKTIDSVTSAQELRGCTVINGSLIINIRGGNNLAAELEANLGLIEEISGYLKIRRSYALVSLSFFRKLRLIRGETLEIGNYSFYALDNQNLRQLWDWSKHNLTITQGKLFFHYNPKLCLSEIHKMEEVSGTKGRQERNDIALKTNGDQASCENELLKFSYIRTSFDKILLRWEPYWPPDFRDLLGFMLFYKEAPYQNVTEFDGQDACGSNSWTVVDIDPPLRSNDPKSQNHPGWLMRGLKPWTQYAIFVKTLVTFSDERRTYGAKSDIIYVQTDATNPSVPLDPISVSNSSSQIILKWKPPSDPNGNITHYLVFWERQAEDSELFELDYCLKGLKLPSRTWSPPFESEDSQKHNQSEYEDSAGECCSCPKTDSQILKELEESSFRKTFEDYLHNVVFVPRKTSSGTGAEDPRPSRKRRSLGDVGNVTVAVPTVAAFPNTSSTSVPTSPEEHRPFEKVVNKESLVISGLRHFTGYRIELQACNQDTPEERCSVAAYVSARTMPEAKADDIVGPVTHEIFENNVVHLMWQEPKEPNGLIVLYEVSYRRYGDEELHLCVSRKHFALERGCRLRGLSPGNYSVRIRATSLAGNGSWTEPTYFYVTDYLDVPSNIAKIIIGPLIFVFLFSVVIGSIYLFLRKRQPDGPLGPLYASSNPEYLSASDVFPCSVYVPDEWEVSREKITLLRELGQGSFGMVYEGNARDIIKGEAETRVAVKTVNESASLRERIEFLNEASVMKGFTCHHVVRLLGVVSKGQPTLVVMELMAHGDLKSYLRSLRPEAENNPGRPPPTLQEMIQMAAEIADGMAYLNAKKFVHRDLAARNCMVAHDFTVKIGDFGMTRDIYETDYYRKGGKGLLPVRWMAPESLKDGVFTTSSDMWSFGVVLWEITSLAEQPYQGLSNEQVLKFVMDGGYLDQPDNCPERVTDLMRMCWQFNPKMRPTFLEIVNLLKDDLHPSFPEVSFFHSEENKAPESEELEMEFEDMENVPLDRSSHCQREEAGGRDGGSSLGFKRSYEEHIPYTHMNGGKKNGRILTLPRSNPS"}, "340 wild-type kinases [2]": {"molecular_target": "T2, 340 wild-type kinases (Homo sapiens, UniProt P29322)", "T2 construct": "purchased Reaction Biology Europe", "T2 sequence (P29322 28-1005)": "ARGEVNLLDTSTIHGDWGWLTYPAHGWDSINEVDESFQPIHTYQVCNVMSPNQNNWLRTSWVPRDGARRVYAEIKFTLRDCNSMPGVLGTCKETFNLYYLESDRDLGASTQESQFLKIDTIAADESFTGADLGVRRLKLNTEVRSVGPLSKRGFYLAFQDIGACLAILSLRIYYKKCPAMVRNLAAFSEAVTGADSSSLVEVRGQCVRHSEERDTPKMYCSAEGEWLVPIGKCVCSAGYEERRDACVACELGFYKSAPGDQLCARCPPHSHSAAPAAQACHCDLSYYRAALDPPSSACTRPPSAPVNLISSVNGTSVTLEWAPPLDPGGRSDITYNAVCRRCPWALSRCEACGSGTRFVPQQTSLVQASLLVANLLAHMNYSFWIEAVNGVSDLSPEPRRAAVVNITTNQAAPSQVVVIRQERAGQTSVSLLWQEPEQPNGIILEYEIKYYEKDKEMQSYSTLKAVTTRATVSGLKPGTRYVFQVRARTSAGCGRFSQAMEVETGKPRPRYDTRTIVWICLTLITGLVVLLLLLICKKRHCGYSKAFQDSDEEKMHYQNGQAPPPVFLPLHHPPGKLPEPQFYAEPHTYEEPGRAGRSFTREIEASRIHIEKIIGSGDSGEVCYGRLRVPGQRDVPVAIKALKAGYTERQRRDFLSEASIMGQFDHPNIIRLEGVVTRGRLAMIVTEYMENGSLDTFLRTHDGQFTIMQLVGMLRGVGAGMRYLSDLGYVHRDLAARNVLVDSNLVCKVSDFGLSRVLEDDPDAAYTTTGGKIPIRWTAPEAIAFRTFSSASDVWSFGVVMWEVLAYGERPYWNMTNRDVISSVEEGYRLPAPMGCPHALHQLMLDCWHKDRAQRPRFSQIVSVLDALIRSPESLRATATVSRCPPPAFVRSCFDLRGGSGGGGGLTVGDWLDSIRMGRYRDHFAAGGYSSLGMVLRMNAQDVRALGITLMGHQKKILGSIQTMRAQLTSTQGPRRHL"}, "340 wild-type kinases [3]": {"molecular_target": "T3, 340 wild-type kinases (Homo sapiens, UniProt Q9BYT3)", "T3 construct": "purchased Reaction Biology Europe"}, "340 wild-type kinases [4]": {"molecular_target": "T4, 340 wild-type kinases (Homo sapiens, UniProt P10398, Y301D/Y302D)", "T4 construct": "purchased Reaction Biology Europe", "T4 sequence (P10398 1-606 Y301D/Y302D)": "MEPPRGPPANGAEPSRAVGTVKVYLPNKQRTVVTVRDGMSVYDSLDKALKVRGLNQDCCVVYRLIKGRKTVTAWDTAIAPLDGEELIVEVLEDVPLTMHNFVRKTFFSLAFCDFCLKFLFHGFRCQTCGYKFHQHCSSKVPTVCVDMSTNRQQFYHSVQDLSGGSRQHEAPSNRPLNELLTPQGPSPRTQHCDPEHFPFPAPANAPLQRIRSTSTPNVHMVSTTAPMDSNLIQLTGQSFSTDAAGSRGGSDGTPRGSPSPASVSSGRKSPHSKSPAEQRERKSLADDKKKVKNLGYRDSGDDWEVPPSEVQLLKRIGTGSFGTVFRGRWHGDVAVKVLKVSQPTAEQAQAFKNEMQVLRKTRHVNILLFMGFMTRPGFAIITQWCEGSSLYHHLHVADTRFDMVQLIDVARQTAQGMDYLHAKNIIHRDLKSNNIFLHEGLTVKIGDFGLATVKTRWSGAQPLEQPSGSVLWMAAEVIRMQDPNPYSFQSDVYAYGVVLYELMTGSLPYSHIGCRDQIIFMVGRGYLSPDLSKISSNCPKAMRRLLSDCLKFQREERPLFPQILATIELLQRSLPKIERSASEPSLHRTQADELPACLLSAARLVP"}, "340 wild-type kinases [5]": {"molecular_target": "T5, 340 wild-type kinases (Homo sapiens, UniProt Q9P1W9)", "T5 construct": "purchased Reaction Biology Europe", "T5 sequence (Q9P1W9 whole entry)": "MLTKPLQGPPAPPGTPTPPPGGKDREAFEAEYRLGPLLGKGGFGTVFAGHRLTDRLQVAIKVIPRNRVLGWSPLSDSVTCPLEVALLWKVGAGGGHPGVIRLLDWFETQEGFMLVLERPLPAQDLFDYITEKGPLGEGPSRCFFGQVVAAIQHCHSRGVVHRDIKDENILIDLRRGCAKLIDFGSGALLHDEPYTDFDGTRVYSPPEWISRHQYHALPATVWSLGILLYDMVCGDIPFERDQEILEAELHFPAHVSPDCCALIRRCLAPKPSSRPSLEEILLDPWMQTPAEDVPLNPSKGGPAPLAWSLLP"}, "340 wild-type kinases [6]": {"molecular_target": "T6, 340 wild-type kinases (Homo sapiens, UniProt Q13164)", "T6 construct": "purchased Reaction Biology Europe", "T6 sequence (Q13164 whole entry)": "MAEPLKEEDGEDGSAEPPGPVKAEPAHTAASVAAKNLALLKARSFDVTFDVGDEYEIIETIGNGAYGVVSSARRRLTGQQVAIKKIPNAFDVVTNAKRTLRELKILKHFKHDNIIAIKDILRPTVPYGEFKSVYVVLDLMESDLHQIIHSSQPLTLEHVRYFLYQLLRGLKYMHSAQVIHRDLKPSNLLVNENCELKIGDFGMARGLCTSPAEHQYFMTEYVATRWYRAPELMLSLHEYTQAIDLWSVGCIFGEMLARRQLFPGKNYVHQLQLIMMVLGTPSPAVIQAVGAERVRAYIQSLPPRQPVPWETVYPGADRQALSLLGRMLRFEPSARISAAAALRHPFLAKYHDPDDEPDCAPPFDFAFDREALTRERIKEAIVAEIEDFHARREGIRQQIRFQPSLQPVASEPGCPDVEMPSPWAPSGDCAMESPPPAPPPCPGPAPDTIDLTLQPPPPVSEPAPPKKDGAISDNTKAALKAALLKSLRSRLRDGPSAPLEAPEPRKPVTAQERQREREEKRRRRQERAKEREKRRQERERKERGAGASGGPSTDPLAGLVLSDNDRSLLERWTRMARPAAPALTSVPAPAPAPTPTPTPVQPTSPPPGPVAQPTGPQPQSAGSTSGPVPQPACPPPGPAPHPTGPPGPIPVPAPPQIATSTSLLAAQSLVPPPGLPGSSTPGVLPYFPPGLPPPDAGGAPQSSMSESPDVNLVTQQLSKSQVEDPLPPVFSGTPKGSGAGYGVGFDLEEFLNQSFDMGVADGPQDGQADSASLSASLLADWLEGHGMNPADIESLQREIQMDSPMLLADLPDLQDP"}, "340 wild-type kinases [7]": {"molecular_target": "T7, 340 wild-type kinases (Homo sapiens, UniProt Q04912)", "T7 construct": "purchased Reaction Biology Europe"}, "340 wild-type kinases [8]": {"molecular_target": "T8, 340 wild-type kinases (Homo sapiens, UniProt Q9Y2K2)", "T8 construct": "purchased Reaction Biology Europe"}, "340 wild-type kinases [9]": {"molecular_target": "T9, 340 wild-type kinases (Homo sapiens, UniProt P35968)", "T9 construct": "purchased Reaction Biology Europe", "T9 sequence (P35968 20-1356)": "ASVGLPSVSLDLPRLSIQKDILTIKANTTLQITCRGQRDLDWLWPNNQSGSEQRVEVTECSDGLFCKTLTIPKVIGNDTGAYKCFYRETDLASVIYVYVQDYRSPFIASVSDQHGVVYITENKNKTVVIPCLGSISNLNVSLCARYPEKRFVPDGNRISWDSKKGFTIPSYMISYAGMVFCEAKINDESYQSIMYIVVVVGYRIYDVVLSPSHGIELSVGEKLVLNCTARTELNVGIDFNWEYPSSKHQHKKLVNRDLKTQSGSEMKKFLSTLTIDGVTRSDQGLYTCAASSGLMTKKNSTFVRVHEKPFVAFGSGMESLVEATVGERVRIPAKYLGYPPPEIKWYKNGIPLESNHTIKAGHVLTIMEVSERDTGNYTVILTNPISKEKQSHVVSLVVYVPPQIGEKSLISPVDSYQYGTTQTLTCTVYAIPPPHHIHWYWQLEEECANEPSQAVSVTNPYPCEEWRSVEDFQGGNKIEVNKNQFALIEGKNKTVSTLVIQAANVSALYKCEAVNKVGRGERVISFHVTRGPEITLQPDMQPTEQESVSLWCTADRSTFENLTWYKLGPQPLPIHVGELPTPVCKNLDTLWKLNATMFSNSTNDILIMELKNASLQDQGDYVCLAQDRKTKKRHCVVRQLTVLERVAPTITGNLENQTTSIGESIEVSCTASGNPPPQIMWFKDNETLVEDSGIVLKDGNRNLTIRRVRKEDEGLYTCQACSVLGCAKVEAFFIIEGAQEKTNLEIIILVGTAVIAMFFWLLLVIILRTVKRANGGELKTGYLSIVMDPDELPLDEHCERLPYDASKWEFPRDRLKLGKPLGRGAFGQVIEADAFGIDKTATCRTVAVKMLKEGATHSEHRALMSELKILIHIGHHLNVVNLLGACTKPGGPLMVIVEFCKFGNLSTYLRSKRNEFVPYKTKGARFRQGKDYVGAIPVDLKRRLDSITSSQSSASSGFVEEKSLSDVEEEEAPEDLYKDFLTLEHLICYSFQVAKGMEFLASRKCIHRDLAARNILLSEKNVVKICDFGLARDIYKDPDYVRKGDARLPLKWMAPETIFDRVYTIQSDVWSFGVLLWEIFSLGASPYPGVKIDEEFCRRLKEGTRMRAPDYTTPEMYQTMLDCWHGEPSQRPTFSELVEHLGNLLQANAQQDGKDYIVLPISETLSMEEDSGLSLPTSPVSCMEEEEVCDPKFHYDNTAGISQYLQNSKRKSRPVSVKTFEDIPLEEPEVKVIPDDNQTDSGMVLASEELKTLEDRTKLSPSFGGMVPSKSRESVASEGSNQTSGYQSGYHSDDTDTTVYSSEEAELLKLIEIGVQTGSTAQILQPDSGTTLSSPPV"}}, "note": "Like-named read-outs stand apart in the source and are kept apart here."}
{"smiles": "CNC(=O)c1ccc2c(c1)C(=O)c1ccc(Nc3ccc(F)c(NC(=O)C4CC4)c3)cc1CC2", "note": "[Compound 2015]", "values": [{"measurement": "remaining activity at 0.2 µM", "setting": "340 wild-type kinases [1]; 0.2 µM 2015, read-out: INSR residual activity", "value": 99.9, "unit": "%"}, {"measurement": "remaining activity at 1 µM", "setting": "340 wild-type kinases [1]; 1 µM 2015, read-out: INSR residual activity", "value": 99.3, "unit": "%"}, {"measurement": "remaining activity at 0.2 µM", "setting": "340 wild-type kinases [1]; INSR, 0.2 µM, read-out: residual activity", "value": 99.9, "unit": "%"}, {"measurement": "remaining activity at 1 µM", "setting": "340 wild-type kinases [1]; INSR, 1 µM, read-out: residual activity", "value": 99.3, "unit": "%"}, {"measurement": "remaining activity at 0.2 µM", "setting": "340 wild-type kinases [2]; 0.2 µM 2015, read-out: EPHA8 residual activity", "value": 98.5, "unit": "%"}, {"measurement": "remaining activity at 1 µM", "setting": "340 wild-type kinases [2]; 1 µM 2015, read-out: EPHA8 residual activity", "value": 95.3, "unit": "%"}, {"measurement": "remaining activity at 0.2 µM", "setting": "340 wild-type kinases [2]; EPHA8, 0.2 µM, read-out: residual activity", "value": 98.5, "unit": "%"}, {"measurement": "remaining activity at 1 µM", "setting": "340 wild-type kinases [2]; EPHA8, 1 µM, read-out: residual activity", "value": 95.3, "unit": "%"}, {"measurement": "remaining activity at 0.2 µM", "setting": "340 wild-type kinases [3]; 0.2 µM 2015, read-out: STK33 residual activity", "value": 99.1, "unit": "%"}, {"measurement": "remaining activity at 1 µM", "setting": "340 wild-type kinases [3]; 1 µM 2015, read-out: STK33 residual activity", "value": 96.3, "unit": "%"}, {"measurement": "remaining activity at 0.2 µM", "setting": "340 wild-type kinases [3]; STK33, 0.2 µM, read-out: residual activity", "value": 99.1, "unit": "%"}, {"measurement": "remaining activity at 1 µM", "setting": "340 wild-type kinases [3]; STK33, 1 µM, read-out: residual activity", "value": 96.3, "unit": "%"}, {"measurement": "remaining activity at 0.2 µM", "setting": "340 wild-type kinases [4]; 0.2 µM 2015, read-out: ARAF YDYD residual activity", "value": 98.8, "unit": "%"}, {"measurement": "remaining activity at 1 µM", "setting": "340 wild-type kinases [4]; 1 µM 2015, read-out: ARAF YDYD residual activity", "value": 106, "unit": "%"}, {"measurement": "remaining activity at 0.2 µM", "setting": "340 wild-type kinases [4]; ARAF YDYD, 0.2 µM, read-out: residual activity", "value": 98.8, "unit": "%"}, {"measurement": "remaining activity at 1 µM", "setting": "340 wild-type kinases [4]; ARAF YDYD, 1 µM, read-out: residual activity", "value": 106, "unit": "%"}, {"measurement": "remaining activity at 0.2 µM", "setting": "340 wild-type kinases [5]; 0.2 µM 2015, read-out: PIM2 residual activity", "value": 119, "unit": "%"}, {"measurement": "remaining activity at 1 µM", "setting": "340 wild-type kinases [5]; 1 µM 2015, read-out: PIM2 residual activity", "value": 98.6, "unit": "%"}, {"measurement": "remaining activity at 0.2 µM", "setting": "340 wild-type kinases [5]; PIM2, 0.2 µM, read-out: residual activity", "value": 119, "unit": "%"}, {"measurement": "remaining activity at 1 µM", "setting": "340 wild-type kinases [5]; PIM2, 1 µM, read-out: residual activity", "value": 98.6, "unit": "%"}, {"measurement": "remaining activity at 0.2 µM", "setting": "340 wild-type kinases [6]; 0.2 µM 2015, read-out: ERK5 residual activity", "value": 112, "unit": "%"}, {"measurement": "remaining activity at 1 µM", "setting": "340 wild-type kinases [6]; 1 µM 2015, read-out: ERK5 residual activity", "value": 99, "unit": "%"}, {"measurement": "remaining activity at 0.2 µM", "setting": "340 wild-type kinases [6]; ERK5, 0.2 µM, read-out: residual activity", "value": 112, "unit": "%"}, {"measurement": "remaining activity at 1 µM", "setting": "340 wild-type kinases [6]; ERK5, 1 µM, read-out: residual activity", "value": 99, "unit": "%"}, {"measurement": "remaining activity at 0.2 µM", "setting": "340 wild-type kinases [7]; 0.2 µM 2015, read-out: RON residual activity", "value": 97, "unit": "%"}, {"measurement": "remaining activity at 1 µM", "setting": "340 wild-type kinases [7]; 1 µM 2015, read-out: RON residual activity", "value": 101, "unit": "%"}, {"measurement": "remaining activity at 0.2 µM", "setting": "340 wild-type kinases [7]; RON, 0.2 µM, read-out: residual activity", "value": 97, "unit": "%"}, {"measurement": "remaining activity at 1 µM", "setting": "340 wild-type kinases [7]; RON, 1 µM, read-out: residual activity", "value": 101, "unit": "%"}, {"measurement": "remaining activity at 0.2 µM", "setting": "340 wild-type kinases [8]; 0.2 µM 2015, read-out: SIK3 residual activity", "value": 101, "unit": "%"}, {"measurement": "remaining activity at 1 µM", "setting": "340 wild-type kinases [8]; 1 µM 2015, read-out: SIK3 residual activity", "value": 95.7, "unit": "%"}, {"measurement": "remaining activity at 0.2 µM", "setting": "340 wild-type kinases [8]; SIK3, 0.2 µM, read-out: residual activity", "value": 101, "unit": "%"}, {"measurement": "remaining activity at 1 µM", "setting": "340 wild-type kinases [8]; SIK3, 1 µM, read-out: residual activity", "value": 95.7, "unit": "%"}, {"measurement": "remaining activity at 0.2 µM", "setting": "340 wild-type kinases [9]; 0.2 µM 2015, read-out: VEGFR2 residual activity", "value": 86.7, "unit": "%"}, {"measurement": "remaining activity at 1 µM", "setting": "340 wild-type kinases [9]; 1 µM 2015, read-out: VEGFR2 residual activity", "value": 96.7, "unit": "%"}, {"measurement": "remaining activity at 0.2 µM", "setting": "340 wild-type kinases [9]; VEGFR2, 0.2 µM, read-out: residual activity", "value": 86.7, "unit": "%"}, {"measurement": "remaining activity at 1 µM", "setting": "340 wild-type kinases [9]; VEGFR2, 1 µM, read-out: residual activity", "value": 96.7, "unit": "%"}]}
